The record followed here is patent publication US4237305A, “Substituted phenylacetic acid compounds and process for preparation thereof” (Fujisawa Pharmaceutical Co., Ltd., priority 1976, dated 1980).

One assay concerns Escherichia coli 114. Put plainly: MIC (Minimum Inhibitory Concentration) determined by conventional method, Escherichia coli 114. Type of assay: cell-based. An excerpt: (§1) MIC (Minimum Inhibitory Concentration) value
(§2) determined by conventional method

Assay [1] has as its system Pseudomonas aeruginosa 10490. Put plainly: MIC (Minimum Inhibitory Concentration) determined by conventional method, Pseudomonas aeruginosa 10490. Format: cell-based.
Text: as §1, §2

With `NC(CCOc1ccc(C(=O)C(=O)NC2CN(C(C(=O)O)c3ccc(O)cc3)C2=O)cc1)C(=O)O` (centres unmarked) [d.circle.], the results for the “MIC (Minimum Inhibitory Concentration) value” (against Escherichia coli 114; in assay [1]) were 1.6 and 25, respectively.
